Measurements published in EP3390415B1, “(R)- AND (S)-1-(3-(3-N,N-DIMETHYLAMINOCARBONYL)PHENOXYL-4-NITROPHENYL)-1-ETHYL-N,N'-BIS (ETHYLENE)PHOSPHORAMIDATE, COMPOSITIONS AND METHODS FOR THEIR USE AND PREPARATION” (OBI PHARMA, INC., priority 2015, dated 2017).
Several values for one entry are separate records, joined by “and”; a condition that tells them apart may be missing. Equal values may be shown once. Read-outs that look alike come from different tables or passages of the source.

Assays:
Jurkat, Clone E6-1 = experiment: In vitro human tumor cell line cytotoxicity assay; assay type: cell-based; details: read-out: RelIC50
TE-8 = experiment: In vitro human tumor cell line cytotoxicity assay; assay type: cell-based; details: read-out: RelIC50
KYSE = experiment: In vitro human tumor cell line cytotoxicity assay; assay type: cell-based; details: read-out: RelIC50
EC-GI-10 = experiment: In vitro human tumor cell line cytotoxicity assay; assay type: cell-based; details: read-out: RelIC50
KYSE 180 = experiment: In vitro human tumor cell line cytotoxicity assay; assay type: cell-based; details: read-out: RelIC50
Vcap = experiment: In vitro human tumor cell line cytotoxicity assay; assay type: cell-based; details: for IC50: Homo sapiens, VCaP
TF-1 = experiment: In vitro human tumor cell line cytotoxicity assay; assay type: cell-based; details: read-out: RelIC50
HepG2 = experiment: In vitro human tumor cell line cytotoxicity assay; assay type: cell-based; details: for IC50: Homo sapiens
[1] = test system: HepG2-GFP human hepatocellular carcinoma; experiment: Orthotopic mouse model of human liver cancer, tumor burden; assay type: in vivo, athymic nude mice; details: for tumor inhibition rate IR(%): from final average tumor weights
Description: Female athymic nude mice (6 weeks of age) were used in this study. The animals were purchased from Beijing HFK Bioscience, Co., Ltd and maintained in a High Efficiency Particulate Air Filter (HEPA) filtered environment with cages, food, and bedding sterilized by irradiation or autoclaving. A total of 32 nude mice were used for the study. HepG2-GFP human hepatocellular carcinoma cells (AntiCancer, Inc., San Diego, CA) were incubated with RPMI-1640 (Gibco-BRL, Life Technologies, Inc.), which contained 10% FBS. Cells were grown in a CO2 Water Jacketed Incubator (Forma Scientific) maintaining 37°C and a 5% CO2/95% air atmosphere. Cell viability was determined by trypan blue exclusion analysis. Five female athymic nude mice were injected subcutaneously with a single dose of 5 x 10^6 HepG2-GFP cells. Tumors were harvested when their size reached 1cm^3 and the tumor tissues were then cut into small fragments of 1mm^3. Forty female nude mice were implanted orthotopically with a single piece of tumor fragment, which was derived from a subcutaneous tumor model of HepG2-GFP human hepatocellular carcinoma. The tumor tissue was orthotopically implanted in the right lobe of the liver in each mouse by SOI (Surgical Orthotopic Implantation). Briefly, an upper abdominal incision of 1cm was made under anesthesia. Right lobe of the liver was exposed and a part of the liver surface was injured mechanically by scissors. Then a piece of tumor fragment was fixed within the liver tissue, the liver was returned to the peritoneal cavity and the abdominal wall finally closed. Mice were kept in laminar-flow cabinets under specific pathogen-free-conditions.
Treatment was started three days after tumor implantation when the implanted tumors reached an average size of around 1 mm^2. The 32 tumor-bearing mice were randomly divided into four experimental groups of 8 mice each. Each cage was clearly marked for its group with four mice per cage. […] Table. Groups and treatment protocol
During the period of the study, all of the experimental mice were checked daily for mortality or signs of morbidity. […] The body weights of the mice were measured twice weekly during the study period. Images of tumor growth and progression were acquired twice a week during the period of the study with the FluorVivo imaging system, Model 300/Mag (INDEC, CA, USA). […] Livers were exposed for imaging, after which the tumors were removed and weighted with an electronic balance (Sartorius BS 124 S, Germany). Tumor tissues were kept in formalin for further analysis. Comparisons of body weights and tumor burdens in different groups were analyzed using the Student's t-test with an α = 0.05 (two-sided). After intravenously injection of the test agents, the mice had no lying, no autonomous activity reduction. The experimental animals were generally in good condition. Table. Comparison of mean mice body weight at the end of the study
The progressions of orthotopic HepG2-GFP hepatocellular carcinoma in different groups were monitored by real time imaging. Images were acquired twice a week. Typical tumor images at the end of the study in each group and tumor growth curves derived from the signals of tumor fluorescence, which were analyzed using the Power Station software (INDEC Biosystems, CA, USA), are shown in figure 6 and figure 7, respectively Table. Average tumor size in each group (mm2)

TALL-1 = experiment: In vitro human tumor cell line cytotoxicity assay; assay type: cell-based; details: read-out: RelIC50
[2] = Pharmacokinetics (TK) after 30-min IV infusion in monkeys; assay type: in vivo, Cynomolgus monkeys; details: 2 mg/kg 30-min IV infusion; for MRT inf / clearance / half-life / Vd / concentration at 0.25 hr / concentration at 0.5 hr / concentration at 0.75 hr / concentration at 1 hr / concentration at 2 hr: cynomolgus monkey, plasma; for half-life: read-out: Terminal t1/2 (converted); for Vd: read-out: Vss
Description: (§1) TH 3423 and TH 3424 were tested in no naive monkeys (1 male and one female for each compound at 2 mg/kg) with 30-min intravenous infusion, TK sampling: on Day 1 and Day 15: 0.25, 0.5, 0.75, 1 and 2 hr post infusion initiation. Serum chemistry and hematology: pre-dose (Day 1), day 5, day 8 (pre-dose), day 15 (pre-dose), day 22 and day 28. Clinical observation: Daily during the study, total 35 days. Food consumption: Daily during the study, total 35 days. Bodyweight measurement: Twice weekly for five weeks.

[3] = Acute toxicity study in monkeys, body weight; assay type: in vivo, Cynomolgus monkeys; parameters: unit not given here; details: 2 mg/kg IV infusion
Description: as §1

[4] = both sexes, mean, read-out: Plasma concentration, Mean
[5] = female, read-out: Plasma concentration
[6] = male, read-out: Plasma concentration

`C[C@H](OP(=O)(N1CC1)N1CC1)c1ccc([N+](=O)[O-])c(Oc2cccc(C(=O)N(C)C)c2)c1` (single isomer, unassigned) [TH3424] gave an IC50 (Jurkat, Clone E6-1) of 0.024 µM, an IC50 (TE-8) of 0.019 µM and an IC50 (KYSE) of 0.011 µM. It also gave an IC50 (EC-GI-10) of 0.013 µM, an IC50 (KYSE 180) of 0.45 µM and an IC50 (Vcap; read-out: AbsIC50) of 0.0148 µM. For the same compound, the IC50 (Vcap; read-out: RelIC50) was 0.0132 µM, the “Max Inhibition%” value (Vcap; Vcap) was 101.4% and the “Min Inhibition%” value (Vcap; Vcap) was -13.2%. The IC50 (TF-1) was 0.028 µM, the “Max Inhibition%” value (HepG2) was 100.2% and the “Min Inhibition%” value (HepG2) was 3.4%. For the same compound, the IC50 (HepG2; read-out: AbsIC50) was 0.0086 µM, the IC50 (HepG2; read-out: RelIC50) was 0.0073 µM and the “Tumor area (mm^2) (mean ± sd)” value ([1]; 2.5mg/kg, QWx6, I.P., Day 35) was 1.2 ± 1.1 mm^2 and 1.2 ± 1.1(Day 35) mm^2. The “Tumor area (mm^2) (mean ± sd)” value ([1]; 2.5mg/kg, QWx6, I.P., Day 49) was 2.0 ± 2.2 mm^2 and 2.0 ± 2.2(Day 49) mm^2, the “Tumor weight (g) (mean ± sd)” value ([1]; 2.5mg/kg, QWx6, I.P., Day 49) was 0.0081±0.0088 g and 0.0081±0.0088 (Day 49) g and the “average fluorescence imaging readout area as % of that in the negative control group” value ([1]; 2.5 mg/kg, day 35) was “around 8%”. The “average fluorescence imaging readout area as % of that in the negative control group” value ([1]; 2.5 mg/kg, day 49 after treatment) was “around 8%”, the “tumor inhibition rate IR(%)” value ([1]; 2.5 mg/kg) was 94.8% and the “Tumor area (mm^2) (mean ± sd)” value ([1]; 5mg/kg, QWx3, I.P.) was 0 mm^2 and 0.0 ± 0.0 mm^2. For the same compound, the “Tumor weight (g) (mean ± sd)” value ([1]; 5mg/kg, QWx3, I.P.) was 0 g and 0.0000 ± 0.0000 g, the “tumor inhibition rate IR(%)” value ([1]; 5mg/kg) was 100% and the “average tumor weight as % of that in the negative control group” value ([1]; high dose group, 5mg/kg) was 0%. For the same compound, the “average tumor weight as % of that in the negative control group” value ([1]; low dose group, 2.5mg/kg) was 5.2%, the IC50 (TALL-1) was 0.03 µM and the AUCINF ([2]; Mean) was 1461 hr^∗ng/mL. For the same compound, the AUClast ([2]; Mean) was 1459 hr^∗ng/mL, the MRT inf ([2]; both sexes, Mean) was 13.9 min and the clearance ([2]; both sexes, Mean) was 23.7 mL/min/kg. It also gave a half-life ([2]; both sexes, Mean) of 10.9 min, a Vd ([2]; both sexes, Mean) of 0.325 L/kg and a concentration at 0.25 hr [2, 4] of 2160 ng/mL. It also gave a concentration at 0.5 hr [2, 4] of 2400 ng/mL, a concentration at 0.75 hr [2, 4] of 794 ng/mL and a concentration at 1 hr [2, 4] of 185 ng/mL. The concentration at 2 hr [2, 4] was 5.64 ng/mL, the concentration at 0.25 hr [2, 5] was 1850 ng/mL and the concentration at 0.5 hr [2, 5] was 2090 ng/mL. For the same compound, the concentration at 0.75 hr [2, 5] was 557 ng/mL, the concentration at 1 hr [2, 5] was 110 ng/mL and the concentration at 2 hr [2, 5] was 3.84 ng/mL. The MRT inf ([2]; female) was 12.9 min, the clearance ([2]; female) was 27.8 mL/min/kg and the half-life ([2]; female) was 10.9 min. The Vd ([2]; female) was 0.36 L/kg, the concentration at 0.25 hr [2, 6] was 2480 ng/mL and the concentration at 0.5 hr [2, 6] was 2720 ng/mL. For the same compound, the concentration at 0.75 hr [2, 6] was 1030 ng/mL, the concentration at 1 hr [2, 6] was 260 ng/mL and the concentration at 2 hr [2, 6] was 7.43 ng/mL. It also gave an MRT inf ([2]; male) of 15 min, a clearance ([2]; male) of 19.3 mL/min/kg and a half-life ([2]; male) of 10.9 min. For the same compound, the Vd ([2]; male) was 0.289 L/kg, the AUCINF ([2]; female) was 1196 hr^∗ng/mL and the AUClast ([2]; female) was 1195 hr^∗ng/mL. It also gave an AUCINF ([2]; male) of 1726 hr^∗ng/mL, an AUClast ([2]; male) of 1724 hr^∗ng/mL and a body weight ([3]; Mean, Day 1) of 3.34. It also gave a body weight ([3]; Mean, Day 4) of 3.26, a body weight ([3]; Mean, Day 8) of 3.20 and a body weight ([3]; Mean, Day 11) of 3.06. It also gave a body weight ([3]; female, Day 1) of 3.28, a body weight ([3]; female, Day 4) of 3.22 and a body weight ([3]; female, Day 8) of 3.08. For the same compound, the body weight ([3]; female, Day 11) was 2.94, the body weight ([3]; male, Day 1) was 3.40 and the body weight ([3]; male, Day 4) was 3.30. It also gave a body weight ([3]; male, Day 8) of 3.31 and a body weight ([3]; male, Day 11) of 3.17.
